US20160074390A1, “HUMAN DOSING OF PHOSPHATASE INHIBITOR” (Lixte Biotechnology, Inc., priority 2014, published 2016)
Several values for one entry are separate records, joined by “and”; a condition that tells them apart may be missing. Equal entries are not always repeated. Where two headings read alike, the source gives them in different places.

Key:
in vivo = conditions: beagle, dog, 0.15 mg/kg
male Fischer rats = assay: Non-GLP dose ranging toxicity study, daily IV infusion x4 days (NCI)
Method: (§1) In a non-GLP dose ranging study in male Fischer rats conducted by the NCI, LB-100 was administered by daily intravenous (IV) infusion at 0.5, 0.75 and 1.5 mg/kg/day for 4 consecutive days.

[1] = as above; conditions: male, Fischer, rat, in vivo, iv
Method: as §1

TNBC cell lines = assay: Cytotoxicity against TNBC cells; type: cell-based; conditions: single agent; present-tense example
Method: LB-100 inhibits PP2A activity and is cytotoxic to TNBC cells. LB-100 synergizes with chemotherapeutic drugs to enhance cytotoxicity against TNBC cells. LB-100 also enhances the effects of chemotherapy in TNBC xenografts. LB-100 chemosensitizes doxorubicin and cisplatin to TNBC cells and/or has a synergistic cytotoxic effect with doxorubicin and/or cisplatin against TNBC cells.
Both doxorubicin (0.2 μg/ml) and cisplatin (2 μg/ml) in combination with LB-100 are cytotoxic to TNBC cell lines. The addition of LB-100 sensitizes TNBC cells to doxorubicin and cisplatin. TNBC cell lines include HCC1599, HCC1937, HCC1599, MDA-MB-468, HCC38, HCC70, HCC1806, HCC1187, DU4475, BT-549, Hs-578T, MDA-MB-231, MDA-MB-436, MDA-MB-157, MDA-MB-453, BT-20, and HCC1395.

[2] = test system: male and female beagle dogs; assay: GLP repeat dose toxicity study, IV daily x5 days
Method: In the GLP repeat dose dog study, LB-100 was administered by intravenous injection (slow bolus push) at dose levels of 0.15, 0.30, and 0.75 mg/kg daily for 5 consecutive days.
Multilead (I, II, III, aVR, aVL, aVF, and V2) ECGs were recorded for all animals prior to randomization (Day −8) and for all surviving animals on Day 4 (recorded approximately 2 to 4 hours following dose administration) and Day 27.
Blood pressure (systolic, diastolic, and mean arterial pressure) data were recorded for all animals once during the pretest period (Day −8) and for all surviving animals on study Day 4 (recorded approximately 2 to 4 hours following dose administration) and Day 27.

[3] = test system: patients with advanced solid tumors; conditions: in vivo
Method: This is a Phase I, open label, multicenter, two-part, dose-escalation study of LB-100 administered intravenously in patients with advanced solid tumors. Two dose regimens are explored. In the first regimen (Part 1), single agent LB-100 is given daily on Days 1 through 3 of every 21 day cycle. In the second regimen (Part 2), docetaxel-naïve patients are treated with LB-100 given daily on Days 1 through 3 in combination with a fixed dose of docetaxel (either 60 mg/m^2 or 75 mg/m^2) given on Day 2 of every 21 day cycle. Once the MTD of single agent LB-100 is reached, 3 additional patients are enrolled in an MTD confirmation cohort. Part 2 enrolls patients once the MTD of single agent LB-100 is determined in Part 1.
The starting dose of L8-100 for Part 1 is 0.25 mg/m^2. The starting dose of LB-100 for Part 2 is 2 dose levels below the MTD determined in Part 1, administered in combination with docetaxel 60 mg/m^2. Once the MTD of LB-100+docetaxel 60 mg/m^2 is determined, the dose of LB-100 is reduced 2 dose levels and administered in combination with docetaxel 75 mg/m^2. The dose of LB-100 is then be escalated to the full LB-100 dose (of the LB-100+docetaxel 60 mg/m^2 MTD) and administered in combination with docetaxel 75 mg/m^2. Once the MTD of the combination of LB-100+docetaxel (either 60 mg/m^2 or 75 mg/m^2) is reached, 3 additional patients are enrolled in an MTD/RD confirmation cohort.
LB-100 is administered in escalating dose levels. Enrollment in each dose cohort proceeds in the standard “3+3” schema. In each cohort, the first patient enrolled completes Cycle 1 treatment and safety monitoring prior to the enrollment of the second and third patients; the second and third patients may be enrolled simultaneously. DLTs are evaluated and recorded during the first 2 cycles of treatment.
Initially, the decision to escalate to the next dose level is be based on the observation of DLT during Cycle 1. If no DLT is observed, escalation proceeds to the next cohort. If a DLT is observed in Cycle 2 in the study, the escalation strategy is evaluated moving forward. Escalation continues until the maximum administered dose (MAD), maximum tolerated dose (MTD) and recommended dose (RD) are determined.
On Days 1, 2 and 3 of each cycle, LB-100 was infused over 15 minutes.
LB-100 was administered daily on Days 1 through 3 of every 21 day cycle to patients at the following dose levels:
Enrollment in each dose cohort will proceed in the standard “3+3” schema where 3 patients are initially enrolled per cohort; Scheme 2. In each cohort, the first patient enrolled will complete Cycle 1 treatment and safety monitoring prior to the enrollment of the second and third patients; the second and third patients may be enrolled simultaneously. Dose limiting toxicities (DLTs) will be evaluated and recorded during the first 2 cycles of treatment. Initially, the decision to escalate to the next dose level will be based on the observation of DLT during Cycle 1. If no DLT is observed, escalation will proceed to the next cohort. Note: if a DLT is observed in Cycle 2 in the study, the escalation strategy will be evaluated moving forward. If, however, DLT is observed in 1 of the 3 patients, an additional 3 patients must be enrolled at that dose. In a cohort of 6, if one patient has DLT, then dose escalation may proceed; if 2 or more patients have DLT, then that dose will be considered the maximum administered dose (MAD) and dose escalation will cease. The MTD is defined as one dose level below the MAD. Once the MTD of single agent LB-100 is reached, 3 additional patients will be enrolled in an MTD confirmation cohort. At least 6 patients must be treated at the MTD to determine the safety of that dose as a basis for the starting dose of LB-100 in Part 2 of this study.
The NCI Common Terminology Criteria for Adverse Events (CTCAE) Version 4.0 will be used to grade toxicity.

advanced solid tumors = assay: Phase I Part 1 single agent LB-100: tumor response (RECIST 1.1); type: in vivo, human
Excerpt: Two dose regimens are explored.
Although response is not the primary endpoint of this study, patients with measurable disease will be assessed at baseline and during the study by standard criteria. Patients should be reevaluated after receiving 2 cycles of study therapy and then after every 2 cycles thereafter. In the event objective response (PR or CR) is noted, changes in tumor measurements must be confirmed by repeat assessments that should be performed at least 4 weeks after the criteria for response are first met.
Response and progression will be evaluated in this study using the international criteria (version 1.1) proposed by the Response Evaluation Criteria in Solid Tumors (RECIST) Committee [Eur J Cancer. 45 (2009) 228-247]. Changes in only the largest diameter (unidimensional measurement) of the tumor lesions are used in the RECIST 1.1 guidelines. Note: Lesions are either measurable or non-measurable using the criteria provided below.
• Complete Response (CR): Disappearance of all target lesions.
The patient's best overall response assignment will depend on findings of both target and non-target disease and will also take into consideration the appearance of new lesions. It is assumed that at each protocol-specified time point, a response assessment occurs. Table provides a summary of the overall response status calculation at each time point for patients who have measurable disease at baseline.
In the case of SD, follow-up measurements must have met the SD criteria at least once after study entry at a minimum interval at 5 weeks.

[4] = test system: HeLa cells, OS-17, MKN28, MKN45, MGC803, and SGC7901 cells; assay: Growth of Mad2-overexpressing cell lines in vitro; type: cell-based, human; conditions: all cell lines; present-tense example
Method: Compound LB-100 inhibits PP2A phosphatase in cancer cells which in turn induces Mad-2 phosphorylation while suppressing Mad-2 protein levels. In order to characterize the effects of LB-100 on cancers overexpressing Mad2, tumor cell lines carrying Mad2-overexpressing mutations are tested. LB-100 inhibits the growth of the cancer cells in in vitro assays. […] Exposure to LB-100 reduces the expression of Mad-2 in the cells.
Mad2-overexpressing HeLa cells (HeLa Mad-2 O/E), osteosarcoma human cells (OS-17) and gastric cell lines (MKN28, MKN45, MGC803, and SGC7901) express high levels of Mad2 (Yu, L. et al. 2010). LB-100 inhibits the growth of the HeLa cells, OS-17, MKN28, MKN45, MGC803, and SGC7901 cells in vitro. […] Exposure to LB-100 reduces the expression of Mad-2 in all cell lines.

[5] = Toxicokinetics in GLP repeat-dose rat study; conditions: Sprague Dawley, in vivo, iv, 0.75 mg/kg/day, study Day 4
Excerpt: These changes were reversible. […] Inflammation was often accompanied by mesothelial hypertrophy.

[6] = test system: male and female Sprague Dawley rats; assay: GLP repeat-dose toxicity study, daily IV slow bolus x5 days
[7] = test system: human glioblastoma cell line, U373; conditions: simultaneous exposure, US 2010/0029683 A1; cited from earlier work
[8] = Solubility and stability of LB-100 solution; type: physicochemical; conditions: for stability of formulation: in monosodium glutamate, pH 10.5
Excerpt: LB-100 is a water soluble enantiomeric zwitterion provided as a sterile solution for intravenous administration. […] Phosphate buffered saline (PBS) was used as the vehicle for LB-100 administration in preclinical efficacy studies and sodium bicarbonate 4.2% for injection was used as the vehicle for GLP toxicity studies.

beagle dogs = assay: Non-GLP dose ranging toxicity study, IV every 4 days x4 doses; type: in vivo, dog
Akt = conditions: Lu et al. 2009; cited from earlier work

Question: Which AUC(0-t) (in vivo; female) does the source give for `CN1CCN(C(=O)C2C(C(=O)O)[C@H]3CC[C@@H]2O3)CC1` (mixture of isomers) [LB-100, 3-(4methylpiperazine-carbonyl)-7-oxalobicyclo[2.2.1]heptane-2-carboxylic acid] here?
Answer: 335 ng·h/mL

Question: And the AUC(0-t) (in vivo; male)?
Answer: 267 ng·h/mL

Question: And the nephrosis severity (male Fischer rats; 0.75 mg/kg/day)?
Answer: mild

Question: What about the “no-observed-adverse-effect-level (NOAEL)” value (male Fischer rats; 0.5, 0.75 and 1.5 mg/kg/day x4 days) of the same compound?
Answer: not established

Question: What about the heart toxicity (male Fischer rats; 0.75 and 1.5 mg/kg/day groups) of the same compound?
Answer: epicardial hyperplasia with inflammation primarily on the epicardium of the atria

Question: And the MTD (male Fischer rats; IV daily for 4 days, converted dose)?
Answer: about 4.5 mg/m^2

Question: And the unscheduled deaths (male Fischer rats; any treatment group)?
Answer: no unscheduled deaths

Question: What about the dose-limiting toxicities (male Fischer rats; rat, in vivo, iv) of the same compound?
Answer: Kidney, heart, femoral bone, liver and urinary bladder toxicity

Question: What about the MTD at 4 days [1] of the same compound?
Answer: 0.75 mg/kg/day

Question: And the “cytotoxicity to TNBC cells” value (TNBC cell lines)?
Answer: cytotoxic

Question: And the tolerability ([2]; 0.15 mg/kg/day)?
Answer: well tolerated

Question: And the “test article-related lethality, animals” value ([2]; 0.75 mg/kg/day group, before fourth dose)?
Answer: 2 of 10

Question: And the “Highest Non-Severely Toxic Dose (HNSTD)” value ([2]; daily IV x5 days)?
Answer: 0.15 mg/kg

Question: What about the ECGs ([2]; dog, in vivo) of the same compound?
Answer: within normal limits

Question: And the blood pressure ([2]; dog, in vivo)?
Answer: unaffected

Question: What about the adverse events ([3]; human) of the same compound?
Answer: No adverse events attributable to LB-100

Question: What about the dyspnea ([3]; human) of the same compound?
Answer: grade 1

Question: And the tolerability ([3]; human)?
Answer: without any symptoms attributable to LB-100

Question: And the “vomiting, related to LB-100” value ([3]; human)?
Answer: grade 3

Question: And the “adverse events attributed to a bleeding rectal mass” value ([3]; human, 1 cycle)?
Answer: grade 3 anemia and grade 2 weakness

Question: And the “neuropathy, possibly related to LB-100” value ([3]; human, 4 cycles)?
Answer: Grade 1

Question: And the adverse events [3]?
Answer: No new adverse events

Question: And the dose limiting toxicity [3]?
Answer: no dose limiting toxicity

Question: And the “relation of pulmonary embolism to treatment” value [3]?
Answer: not related

Question: And the “duration of stable disease” value (advanced solid tumors; Patient 10, pancreatic cancer, 0.83 mg/m^2)?
Answer: 39 weeks

Question: What about the “time remained stable since starting LB-100” value (advanced solid tumors; Patient 10, pancreatic cancer, interim (8 cycles)) of the same compound?
Answer: 6 months

Question: What about the “cycles on treatment with stable disease” value (advanced solid tumors; Patient 17, metastatic thymoma, DL5 1.75 mg/m^2) of the same compound?
Answer: 7 cycles and 8 cycles

Question: And the “cycles of stable disease” value (advanced solid tumors; breast, ovarian, carcinoid and testicular cancer patients)?
Answer: 4-6 cycles

Question: What about the cytotoxicity [4] of the same compound?
Answer: Dose-dependent cytotoxicity

Question: And the AUC(0-t) ([5]; female, females)?
Answer: 691 ng·h/mL

Question: What about the C0 ([5]; female, females) of the same compound?
Answer: 2350 ng/mL

Question: What about the AUC(0-t) ([5]; male, males) of the same compound?
Answer: 596 ng·h/mL

Question: What about the C0 ([5]; male, males) of the same compound?
Answer: 1800 ng/mL

Question: And the “epicardium and subepicardium of atria” value ([6]; 0.5, 0.75, 1.25 mg/kg/day males, 1.25 mg/kg/day females)?
Answer: Minimal to mild subacute inflammation

Question: And the kidney finding ([6]; 0.75 and 1.25 mg/kg/day, males and females)?
Answer: adverse, test article-related nephrosis of the kidneys

Question: What about the “test article-related effects on urinalysis parameters” value ([6]; Day 5, reversible) of the same compound?
Answer: observed in all treatment groups

Question: And the “severely toxic dose in 10% of the animals (STD 10)” value ([6]; daily IV x5 days)?
Answer: 0.75 mg/kg/day

Question: And the “cytotoxic effect of cisplatin” value [7]?
Answer: enhanced

Question: What about the “cytotoxic effect of doxorubicin” value [7] of the same compound?
Answer: enhanced

Question: And the “cytotoxic effect of taxol” value [7]?
Answer: enhanced

Question: And the “cytotoxic effect of temozolomide” value [7]?
Answer: enhanced

Question: And the water solubility ([8]; enantiomeric zwitterion)?
Answer: water soluble

Question: What about the stability of formulation ([8]; refrigerated temperatures) of the same compound?
Answer: at least 8 hours

Question: What about the stability of formulation ([8]; −20° C.) of the same compound?
Answer: stable for months

Question: And the “racemization of separated enantiomers” value ([8]; in solution)?
Answer: racemize rapidly

Question: And the “possible test article-related clinical observation” value (beagle dogs; 1.0 mg/kg, one female, study Day 13)?
Answer: intermittent tremors

Question: What about the survival (beagle dogs; 0.1-1.0 mg/kg) of the same compound?
Answer: no LB-100-related effects on survival

Question: And the “body weight gain and food consumption” value (beagle dogs; 0.5 and 1.0 mg/kg, females)?
Answer: lower body weight gains and food consumption

Question: And the “no-observed-effect level (NOEL)” value (beagle dogs; IV every 4 days x4 doses)?
Answer: 0.25 mg/kg

Question: And the signs of toxicity (beagle dogs; dog, in vivo, 1 mg/kg)?
Answer: almost no signs of toxicity

Question: For `CCN1CCCC1CNC(=O)c1cc(S(=O)(=O)CC)c(NC)cc1OC` (stereo not drawn) [LB-102], which “phosphorylation of Akt” value (Akt) is on record?
Answer: increased
